“Also recorded” adds a separate entry of the source. Each block holds one compound with its values, some of them ahead of it.
Assays:
[1] = Mechanical tests of bilayer tensile strength; format: physicochemical
Method: (3) Mechanical tests of bilayer tensile strength were carried out on vesicles that contained 0-20 mol % PEG(750)-lipid as a function of MOPC uptake.
As the bilayer takes up more and more of a water-soluble second component (e.g., bile acid or MOPC) it is expected that it will become weaker and softer (Evans et al., In Bile Acids in Gasteroenterology Basic and Clinical Advances, Hoffman et al. (Eds.) Kluwer Academic Publishers, Doderecht, Boston and London, pp. 59-68 (1994); Needham and Zhelev, Ann. Biomed. Egr. 23:287 (1995); Zhelev, Biophys J. 71:257 (1996)). To test this model, the tensile rupture strength of vesicles containing various amounts of MOPC at stationary equilibrium was measured. […] To obtain the wide range of MOPC bilayer concentrations, several different lipid, PEG-lipid and MOPC solution concentrations were used (0.1 μM MOPC; 1.0 μM MOPC; 20% PEG-lipid and 100 μM MOPC; 4% PEG-lipid and 100 μM MOPC; and 1% PEG-lipid and 100 μM MOPC) as indicated on the plot next to each data point in FIG. 6.
PEG-lipids were used in some but not all of these vesicle tests. Whether the incorporation of the PEG-lipids (DMPE-(PEG)750) themselves had any effect on the tensile strength of the bilayer vesicles was also investigated. […]

[2] = MOPC uptake into and desorption from single vesicles, micropipet lysolipid exchange; format: physicochemical
Method: I. du Pont de Nemours and Co.) disc and the chloroform evaporated under nitrogen. Final traces of solvent were removed by placing the disc in an evacuated desiccator for 2 hours (Needham and Nunn, Biophys. J. 58:997 (1990)). The so-formed dried lipid layers were prehydrated with water vapor in a nitrogen carrier gas and then fully hydrated overnight in a sucrose solution at 40° C. […] Both the pure SOPC and SOPC/PEG(750)-lipid vesicles were re-suspended in a glucose solution of 205 mOsm for use in micromanipulation experiments as described below. […] The microscope images were recorded using a COHU CCD camera. […] The pipettes were connected to a manometer system that allowed the applied pressures to be changed and measured to an accuracy of 2 microatmospheres. The micropipet suction pressures were measured by differential transducer (Validyne DP15-24). The measured pressures together with real time were multiplexed on the recorded images with a multiplexer (Model 401, Vista Electronics, La Mesa, Calif., USA). The recorded images were used to measure the change of the vesicle projection length inside the holding pipet during uptake and desorption of lysolecithin, and to calculate the membrane tension. […] The vesicle projection length (Lp) inside the holding pipet is measured and the effects of various solutions on the Lp of the test vesicle are compared. […]

[3] = Critical micelle concentration by DPH fluorescence; format: physicochemical
Method: The critical micelle concentration (CMC) of the lysolipid was measured independently by DPH fluorescence following the method in Chattopadhyay and London, Analytical Biochem. 139:408 (1984). Briefly, a series of solutions containing increasing concentrations of MOPC in the range 10^-7 M to 10^-4 M were prepared. Diphenyl hexatriene (DPH), a lipid soluble fluorescent dye, was added to these samples and the intensity of fluorescence was measured by spectrofluorimeter at absorption and emission wavelengths of 358 nm and 430 nm, respectively. The CMC was determined by plotting the fluorescence intensity (in arbitrary units) verses concentration of MOPC solutions, made up by diluting a 100 mM stock solution of MOPC (solubilized initially by Tetrahydrofuran) in water (Chattopadhyay and London, Analytical Biochem. 139:408 (1984)).
This second trial used SOPC +20 mol % PEG2000 DSPE (0.2 mg/ml, 2×10^-4 M total lipid) for the lipid vesicles and 1 mM PEG2000 DSPE as micellar suspension. […] It was as though the PEG-lipids at this high concentration had formed a gel inside the vesicles.

[4] = unmodified egg PC membranes, flow rate 300 μm/s; cited from earlier work
[5] = TAXOL solubilized in MOPC micelle suspension; format: physicochemical
Method: For concentrations higher than 50 micromolar, samples were diluted in methanol and the original concentrations were back-calculated.
These components were mixed together in glass culture tubes, and the mixture was dried and kept under vacuum for approximately 15 hours to evaporate the solvent. MOPC was chosen because it has an acyl chain composition that matches the di-chain phospholipid, stearoyloleoylphosphatidylcholine, that was used to form the lipid bilayers of encapsulating liposomes, as discussed below. […] Surfactants with high CMCs (e.g., in the mM range) readily dissolve lipid membranes, even when the membranes contain cholesterol.

[6] = cited from earlier work
[7] = Solubility of TAXOL in water and organic solvents; format: physicochemical; conditions: hexane or tetradecane
[8] = small angle neutron scattering; cited from earlier work

Compound: 1,2-Dimyristoyl-sn-Glycero-3-Phosphoethanolamine -N-PEG-750 [PEG(750)-lipid]
tensile rupture strength, effect [1]: did not reduce the tensile strength significantly, up to 20 mol % PEG-lipid

aggregation number in membrane ([2]; above the CMC): about 12 | critical micelle concentration (CMC) [3]: 3 µM
Compound: CCCCCCCC/C=C\CCCCCCCC(=O)OC[C@@H](O)COP(=O)([O-])OCC[N+](C)(C)C [MOPC, mono-oleoyl-phosphatidylcholine]
overall rate of MOPC desorption ([2]; flow rate 400 μm/s, all PEG(750)-lipid concentrations, 5 vesicles): 0.4 ± 0.2 s⁻¹ | tensile rupture strength, effect [1]: decrease with increasing MOPC concentration | rate of MOPC desorption [4]: 0.2 s⁻¹

stability of TAXOL in micelle suspension ([5]; 0.2 mM TAXOL, 5 mM MOPC): at least 24 hours | TAXOL solubilized in MOPC micelles ([5]; 5 mM MOPC): up to 1 mM | increase of solubility limit over aqueous solubility ([5]; 20 mM LPC): about 4000 times | solubility limit in aqueous media in presence of LPC ([5]; 20 mM LPC): 4 mM | moles TAXOL solubilized per mole MOPC micelle ([5]; MOPC micelle, data not shown): 1 mole TAXOL per mole MOPC
Compound: CC(=O)O[C@H]1C(=O)[C@@]2(C)[C@H]([C@H](OC(=O)c3ccccc3)[C@]3(O)C[C@H](OC(=O)[C@H](O)[C@@H](NC(=O)c4ccccc4)c4ccccc4)C(C)=C1C3(C)C)[C@]1(OC(C)=O)CO[C@@H]1C[C@@H]2O [TAXOL®]
water solubility of TAXOL [6]: about 1 micromolar | solubility in alkanes / hexane [7]: not soluble at all in alkanes such as hexane or tetradecane; also recorded: largely insoluble in hexane

Compound: CCCCCC(=O)OCC(COP(=O)([O-])OCC[N+](C)(C)C)OC(=O)CCCCC (stereo not drawn) [dicaproylphosphatidylcholine]
micelle aggregation number [8]: 19

Compound: CCCCCCC(=O)OCC(COP(=O)([O-])OCC[N+](C)(C)C)OC(=O)CCCCCC (stereo not drawn) [diheptanoylphosphatidylcholine]
micelle aggregation number [8]: 27
